Each structure is given as a SMILES string. Values after ≈ are worked out from the molar mass of the structure shown. “Also recorded” adds a separate entry of the source.

Usually solubility stands for the dissolved amount per volume that the medium holds.

What all share (type): physicochemical
The nature of series [1]: Dissolution rate study of griseofulvin compositions (saturation dissolution apparatus). The settings on record: for 20% dissolution time: 5 mg gris in 500 ml water at 25°, 100 r.p.m.
Experimental: A recycling and automatic recording system was used for all dissolution rate studies. The dissolution rate of gris in different physical forms were run in 500 ml. distilled water in a 600 ml. beaker at room temperature.
Unless otherwise specified, samples of 80 to 200 mesh powder were transferred directly into the dissolution medium and stirred with a stainless steel paddle. The paddle, 5.5 × 2.7 cm., was placed at the center of a 500 ml. dissolution medium and rotated at a rate of 100 r.p.m. The solution was pumped by a peristatic pump (Multi-speed Transmission, model No. 6000-000, available from the Harvard Apparatus Co., Dover, Mass.) at a rate of 80 to 100 ml./min. through a glass filter stick to a 1-cm. flow cell and then back to the dissolution apparatus. The absorbance of the solution is monitored by a recording Beckman DB spectrophotometer at either the miximum peak of gris, 292 mu., or minimum absorbance, 272 mu. depending upon the concentration of gris. In the system of gris-PEG 20,000, 324 mu. was used because of possible interference of absorption by the polymer at 272 mu. The volume of the solution in the tubing of the recycling system is about 10 ml. At the flow rate used, the monitored absorbance will reach 90% of the equilibrium valve in 15 sec. Therefore, the lag time in the measurement of dissolution rate is essentially negligible. In the study of the dissolution rate at room temperature, the water is preadjusted to 25° C. The ambient temperature of the room ranged less than 2° from this temperature.
Samples of micronized gris and of gris of 100 to 200 mesh particle size distribution were also run. […] All samples were run in duplicate.
^a Five milligrams gris in 500 ml. of water at 25°.
^b Dissolution times taken from recorded absorbance readings.
Series [2] in a line: Stability of gris on preparing the solid solutions (melting point, spectra, thin layer chromatography). The settings on record: following solvent or direct fusion methods. An excerpt:
A number of tests were made to establish that the gris was not decomposed in any manner following either the solvent or the direct fusion methods of preparing the solid solutions. The melting point, the spectra of the ultra-violet, the infrared and fluorescence are all identical to those of the gris used as a starting material.

The nature of series [3]: Solubility of griseofulvin in water. The settings on record: 25° C., read-out: solubility of gris.
The nature of series [4]: Dissolution studies involving other materials (time for 20% dissolution). The settings on record: in water. An excerpt:
Dissolution studies were similarly made involving other materials.

Take `COC1=CC(=O)C[C@@H](C)[C@]12Oc1c(Cl)c(OC)cc(OC)c1C2=O` [100-200 Mesh pure gris, griseofulvin]: the 20% dissolution time in series [1] was determined as 60.0 min. In turn, `COC1=CC(=O)C[C@@H](C)[C@]12Oc1c(Cl)c(OC)cc(OC)c1C2=O` [Micronized gris (wetted), griseofulvin] returned a 20% dissolution time in series [1] of 2.0 min. Turning to `COC1=CC(=O)C[C@@H](C)[C@]12Oc1c(Cl)c(OC)cc(OC)c1C2=O` [Micronizied gris (nonwetted), griseofulvin], in series [1], the 20% dissolution time worked out at 25.0 min. Moreover, the “dissolution rate (in words)” value in series [1] (compared with other gris forms, wetting with 2 ml of 0.2% polysorbate (Tween 20), micronized gris) is given as “markedly slower than that of the same powder when wetted first; also recorded: almost the same dissolution rate as the 100-200 mish gris”. As for `COC1=CC(=O)C[C@@H](C)[C@]12Oc1c(Cl)c(OC)cc(OC)c1C2=O` [gris, griseofulvin], the “decomposition of gris (in words)” value in series [2] is recorded as “no additional spots were detected”. Further, in series [3], the solubility worked out at 10 µg/mL (≈ 28.3 µM). With `CC(=O)OCC(=O)[C@@]1(O)CC[C@H]2[C@@H]3CCC4=CC(=O)CC[C@]4(C)[C@H]3[C@@H](O)C[C@@]21C` [hydrocortisone acetate], the “time to 20% dissolution” value in series [4] is listed as “more than 20 minutes”.

Take `C[C@]12CCC(=O)C=C1CC[C@@H]1[C@@H]2CC[C@@]2(C)[C@H]1CC[C@]2(C)O` [methyltestosterone]: in series [4], the “time to 20% dissolution” value stood at 2 min.

Regarding `C[C@H]1O[C@@H](O[C@H]2[C@@H](O)C[C@H](O[C@H]3[C@@H](O)C[C@H](O[C@H]4CC[C@@]5(C)[C@H](CC[C@@H]6[C@@H]5CC[C@]5(C)[C@@H](C7=CC(=O)OC7)CC[C@]65O)C4)O[C@@H]3C)O[C@@H]2C)C[C@H](O)[C@@H]1O` [microcrystalline digitoxin, digitoxin], the “time to 20% dissolution” value in series [4] is recorded as “about 15 minutes”. Take `CC(=O)OCC(=O)[C@@]1(O)CC[C@H]2[C@@H]3CCC4=CC(=O)C=C[C@]4(C)[C@H]3[C@@H](O)C[C@@]21C` [prednisolone acetate]: the “time to 20% dissolution” value in series [4] came out at 8 min.
